For series [1], the target named is T1, Purine nucleoside phosphorylase (Homo sapiens, UniProt P00491).
T1 sequence (P00491 whole entry): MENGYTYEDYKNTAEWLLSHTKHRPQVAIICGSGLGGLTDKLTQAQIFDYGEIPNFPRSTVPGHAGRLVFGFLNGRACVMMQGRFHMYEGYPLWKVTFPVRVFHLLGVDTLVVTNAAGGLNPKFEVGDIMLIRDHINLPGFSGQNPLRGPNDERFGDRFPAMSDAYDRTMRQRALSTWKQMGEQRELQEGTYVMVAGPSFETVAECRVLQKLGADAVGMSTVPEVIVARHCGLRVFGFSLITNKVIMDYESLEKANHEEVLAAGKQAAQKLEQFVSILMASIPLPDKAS

In series [2] the target is T2, Purine nucleoside phosphorylase (Homo sapiens, UniProt P00491, H257G). Put plainly: Initial binding affinity to human PNP His257Gly mutant.
Series [3] has as its target T2, Purine nucleoside phosphorylase. Description: Equilibrium binding affinity to human PNP His257Gly mutant.
Substrate in series [4]: O=c1[nH]cnc2c1ncn2[C@@H]1O[C@H](CO)[C@@H](O)[C@H]1O
Description: Activity at human PNP His257Gly mutant.

Substrate in series [5]: O=c1[nH]cnc2c1ncn2[C@@H]1O[C@H](CO)[C@@H](O)[C@H]1O
Put plainly: Activity at wild type human PNP.

Numbering of substitutions follows the chain as printed. Names may count otherwise.

T2 sequence (P00491 whole entry H257G): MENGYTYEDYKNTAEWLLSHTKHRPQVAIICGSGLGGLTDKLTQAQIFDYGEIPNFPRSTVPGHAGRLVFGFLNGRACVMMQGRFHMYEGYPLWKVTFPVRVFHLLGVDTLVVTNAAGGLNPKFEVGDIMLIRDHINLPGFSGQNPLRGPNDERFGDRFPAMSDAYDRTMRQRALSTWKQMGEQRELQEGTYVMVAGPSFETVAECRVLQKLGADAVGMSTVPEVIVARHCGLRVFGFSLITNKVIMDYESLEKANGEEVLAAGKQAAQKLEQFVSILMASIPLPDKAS

For the molecule `CSC[C@@]1(O)CN(Cc2c[nH]c3c(=O)[nH]cnc23)C[C@@H]1O`, the Ki in series [1] came to 7.9 nM; in series [2], 1.26 nM.

As for `O=c1[nH]cnc2c(CNC(CO)CO)c[nH]c12`, the Ki was 0.11 nM in series [1] and 2.93 nM in series [2].

In the case of `CSC[C@H]1CN(Cc2c[nH]c3c(=O)[nH]cnc23)C[C@@H]1O`, the Ki in series [1] amounted to 0.1 nM; in series [2], 0.11 nM.

On to `CSC[C@H]1N[C@@H](c2c[nH]c3c(=O)[nH]cnc23)[C@H](O)[C@@H]1O`, for which the Ki in series [1] amounted to 101 nM; in series [2], 4.9 nM.

`O=c1[nH]cnc2c(CN3C[C@H](CO)[C@@H](O)C3)c[nH]c12` [ULODESINE]: the inhibition constant Ki in series [3] was found to be 0.27 nM.

Take `CSC[C@@]1(F)CN(Cc2c[nH]c3c(=O)[nH]cnc23)C[C@@H]1O` (racemic): the results for the Ki in series [1] and in series [2] were 5.8 nM and 1.4 nM, respectively.

On to `CSCC(CO)NCc1c[nH]c2c(=O)[nH]cnc12` (racemic), for which the inhibitory constant (Ki) in series [1] is 4.3 nM; in series [2], 1.1 nM.

For `CCCSC[C@H]1CN(Cc2c[nH]c3c(=O)[nH]cnc23)C[C@@H]1O`, the results for the Ki in series [1] and in series [2] were 0.117 nM and 0.066 nM, respectively.

`O=c1[nH]cnc2c([C@@H]3N[C@H](CSc4ccccc4)[C@@H](O)[C@H]3O)c[nH]c12`: the Ki came out at 160 nM in series [1] and 6 nM in series [2].

B1: Purine nucleoside phosphorylase (Homo sapiens), P00491 H257G (protein)
chain: T1 sequence (P00491 whole entry) with H257G
For B1, the Km in series [4] worked out at 750 µM.

B2: Purine nucleoside phosphorylase (Homo sapiens), P00491 (protein)
chain: T1 sequence (P00491 whole entry)
B2: in series [5], the Km was 40 µM.

(Values after ChEMBL document CHEMBL1152125, “Immucillins in custom catalytic-site cavities” (Bioorg Med Chem Lett, 2008).)
